Assay results taken from paper PMC6820788, “Structural insights of human mitofusin-2 into mitochondrial fusion and CMT2A onset” (Nature Communications, 2019).
Changes are numbered by the printed parent chain.

Columns and labels:
mouse MFN2IM (mm) = biological target: T1, mouse MFN2IM (mm) (Mus musculus, UniProt Q80U63); assay: GTP hydrolysis, HPLC; assay type: biochemical; settings: 37 °C, pH 7.5, 150 mM KCl, 5 mM MgCl2
T1 construct: gene Mfn2; internally truncated counterpart of human MFN2IM
T1 sequence (Q80U63 22-400 limits assumed): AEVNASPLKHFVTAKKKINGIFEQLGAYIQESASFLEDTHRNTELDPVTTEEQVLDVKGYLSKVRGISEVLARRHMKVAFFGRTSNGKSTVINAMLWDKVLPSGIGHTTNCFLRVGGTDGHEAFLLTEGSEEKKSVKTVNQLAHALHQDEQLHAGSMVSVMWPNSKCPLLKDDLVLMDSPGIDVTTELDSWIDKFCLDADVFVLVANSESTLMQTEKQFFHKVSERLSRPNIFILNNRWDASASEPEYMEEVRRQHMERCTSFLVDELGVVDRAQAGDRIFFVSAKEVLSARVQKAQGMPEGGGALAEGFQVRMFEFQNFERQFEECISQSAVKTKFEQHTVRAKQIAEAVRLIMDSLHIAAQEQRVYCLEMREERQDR
T1 sequence (Q80U63 706-757 limits assumed): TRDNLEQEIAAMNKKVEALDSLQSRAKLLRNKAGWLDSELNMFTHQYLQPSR

mouse MFN1IM (mm) = biological target: T2, mouse MFN1IM (mm) (Mus musculus, UniProt Q811U4); assay: GTP hydrolysis, HPLC; assay type: biochemical; settings: 37 °C, pH 7.5, 150 mM KCl, 5 mM MgCl2
T2 construct: gene Mfn1; internally truncated counterpart of human MFN1IM
T2 sequence (Q811U4 1-364 limits assumed): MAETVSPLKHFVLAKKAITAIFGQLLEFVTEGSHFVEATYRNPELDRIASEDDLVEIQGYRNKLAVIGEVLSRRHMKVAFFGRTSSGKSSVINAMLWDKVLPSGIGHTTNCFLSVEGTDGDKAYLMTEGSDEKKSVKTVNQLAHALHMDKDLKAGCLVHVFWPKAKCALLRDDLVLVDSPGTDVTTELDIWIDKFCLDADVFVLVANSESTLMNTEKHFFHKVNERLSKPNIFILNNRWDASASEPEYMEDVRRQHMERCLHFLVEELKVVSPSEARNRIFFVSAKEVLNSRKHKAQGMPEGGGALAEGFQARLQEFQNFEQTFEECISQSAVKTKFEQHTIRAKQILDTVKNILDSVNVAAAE
T2 sequence (Q811U4 695-741 limits assumed): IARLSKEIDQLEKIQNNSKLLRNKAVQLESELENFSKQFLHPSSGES

MFN2IM [1] = biological target: T3, MFN2IM (Homo sapiens, UniProt O95140, T129I/DEL401-705); assay: stopped-flow fluorescence, displacement by unlabeled GDP; assay type: binding; settings: labelled compound; pH 7.5, 150 mM KCl, 5 mM MgCl2
T3 construct: gene MFN2; deletion of residues 1-21 and 401-705 (G domain + HD1); E. coli; N-terminal His6 cut by PreScission
T3 sequence (O95140 22-400 T129I): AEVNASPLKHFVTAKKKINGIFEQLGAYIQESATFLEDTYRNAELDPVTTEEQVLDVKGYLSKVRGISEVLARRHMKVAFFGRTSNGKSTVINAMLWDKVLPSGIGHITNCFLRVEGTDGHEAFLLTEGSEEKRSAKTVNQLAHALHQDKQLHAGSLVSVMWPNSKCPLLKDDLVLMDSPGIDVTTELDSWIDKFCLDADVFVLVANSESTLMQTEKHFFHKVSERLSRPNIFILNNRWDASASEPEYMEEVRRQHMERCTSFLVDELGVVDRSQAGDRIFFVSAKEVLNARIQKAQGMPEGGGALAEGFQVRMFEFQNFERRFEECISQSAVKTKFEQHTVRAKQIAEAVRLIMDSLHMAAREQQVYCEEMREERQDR
T3 sequence (O95140 706-757): T1 sequence (Q80U63 706-757 limits assumed) with D3E, V16I, A18V, R25K

MFN1IM [2] = biological target: T4, MFN1IM (Homo sapiens, UniProt Q8IWA4, I108T/DEL365-694); assay: as above; assay type: binding; settings: labelled compound; pH 7.5, 150 mM KCl, 5 mM MgCl2
T4 construct: gene MFN1; internally truncated (residues 365-694 removed, G domain + HD1); E. coli; His6 cut by PreScission
T4 sequence (Q8IWA4 1-364 I108T): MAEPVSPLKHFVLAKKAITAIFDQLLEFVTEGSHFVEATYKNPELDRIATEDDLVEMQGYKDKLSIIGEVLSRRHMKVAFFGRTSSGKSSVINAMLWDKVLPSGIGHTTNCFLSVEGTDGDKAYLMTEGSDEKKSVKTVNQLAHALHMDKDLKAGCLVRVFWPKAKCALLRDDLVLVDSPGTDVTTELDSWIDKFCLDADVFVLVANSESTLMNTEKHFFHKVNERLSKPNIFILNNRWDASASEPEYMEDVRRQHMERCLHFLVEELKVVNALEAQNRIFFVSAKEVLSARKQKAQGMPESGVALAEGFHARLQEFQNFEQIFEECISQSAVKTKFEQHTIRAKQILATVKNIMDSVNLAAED
T4 sequence (Q8IWA4 695-741): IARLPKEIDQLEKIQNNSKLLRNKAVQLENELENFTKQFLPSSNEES

MFN1IM [3] = biological target: T5, MFN1IM (Homo sapiens, UniProt Q8IWA4, DEL365-694); assay: stopped-flow fluorescence, nucleotide exchange; assay type: binding; settings: labelled compound; protein preincubated with GDP; pH 7.5, 150 mM KCl, 5 mM MgCl2
T5 construct: gene MFN1; internally truncated (residues 365-694 removed, G domain + HD1); E. coli; His6 cut by PreScission
T5 sequence (Q8IWA4 1-364): T4 sequence (Q8IWA4 1-364 I108T) with T108I
T5 sequence (Q8IWA4 695-741): T4 sequence (Q8IWA4 695-741)

MFN2IM [4] = biological target: T6, MFN2IM (Homo sapiens, UniProt O95140, DEL401-705); assay: stopped-flow fluorescence, nucleotide exchange; assay type: binding; settings: labelled compound; protein preincubated with GDP; pH 7.5, 150 mM KCl, 5 mM MgCl2
T6 construct: gene MFN2; deletion of residues 1-21 and 401-705 (G domain + HD1); E. coli; N-terminal His6 cut by PreScission
T6 sequence (O95140 22-400): T3 sequence (O95140 22-400 T129I) with I108T
T6 sequence (O95140 706-757): T1 sequence (Q80U63 706-757 limits assumed) with D3E, V16I, A18V, R25K

In the case of `Nc1nc2c(ncn2[C@@H]2O[C@H](COP(=O)(O)OP(=O)(O)OP(=O)(O)O)[C@@H](O)[C@H]2O)c(=O)[nH]1` [GTP], the GTP turnover rate (mouse MFN2IM (mm)) is reported as “Mouse MFN1IM and MFN2IM showed weak GTPase hydrolysis” and the GTP turnover rate (mouse MFN1IM (mm)) is reported as “Mouse MFN1IM and MFN2IM showed weak GTPase hydrolysis”.

For `CNc1ccccc1C(=O)O[C@H]1[C@@H](O)[C@H](n2cnc3c(=O)[nH]c(N)nc32)O[C@@H]1COP(=O)(O)OP(=O)(O)O` [mant-GDP], the GDP off-rate (MFN2IM [1]) was “GDP off-rates of MFN2IM(T129I) and MFN1IM(I108T)” and the GDP off-rate (MFN1IM [2]) was “GDP off-rates of MFN2IM(T129I) and MFN1IM(I108T)”.

With `CNc1ccccc1C(=O)O[C@H]1[C@@H](O)[C@H](n2cnc3c(=O)[nH]c(N)nc32)O[C@@H]1COP(=O)(O)OP(=O)(O)OP(=O)(O)O` [mant-GTP] the “stopped-flow fluorescence, nucleotide exchange” value (MFN1IM [3]) was “G domain dimerization greatly reduced the mant-GTP reload rate of both MFN2IM and MFN1IM” and the “stopped-flow fluorescence, nucleotide exchange” value (MFN2IM [4]) was “MFN2IM bound more mant-GTP over time due to a higher affinity to GTP”.
